Assay results reported in US20150053211A1, “Cleaning and safe mouth guard solution” (priority 2013, published 2015).

Columns and labels:
S. aureus [1] = experiment: Kill tests using S. aureus (SIK test); type: cell-based; details: LAE.HCl at 200 ppm versus a product containing 27% ethanol and 1890 ppm of essential oils
Method: One of the commercial products that was analyzed not only contains a large amount of ethanol, but contains three essential biocidal oils. Specifically it contains 900 ppm of eucalyptol, 490 ppm of Thymol, and 500 ppm of D-menthol, for a total of 1890 ppm of total active constituents. In contrast our invention is N^α-lauroyl-L-arginine-ethyl ester hydrochloride, also known as LAE.HCl, which is used as a preservative in the food and cosmetic industries. • 1. N^α—lauroyl-L-arginine-ethyl ester hydrochloride, (LAE.HCl) salt is naturally derived and metabolizes readily to L-arginine, an essential amino acid, lauric acid, and very low ppm amounts of ethanol. All degradation by products are found naturally in the body and are totally harmless. • 2. LAE.HCl has undergone extensive toxicity, and safety studies, and it is approved by the FDA and EPA for food and cosmetic industries. • 3. […] The formulation of our invention includes a natural sweetener xylitol. Xylitol is known to reduce cavities as well as inhibiting the adhesion of bacteria on enamel/dentin. The selection of xylitol has the above advantages over other natural or synthetic sweeteners. (“Science Daily”, Feb. 15, 2007) • 5. Substantivity product of this invention has been proven experimentally versus the existing commercial products resulting in longer-lasting efficacy, using a zone of inhibition tests
1. […]

S. aureus [2] = experiment: Substantivity test on 100% cotton fabric, zone of inhibition (ZOI); type: cell-based; details: 600 ppm, dried on 100% cotton fabric, saliva added to plates
Method: 2. Substantivity tests on 100% cotton fabric using S. aureus as the microorganism/zone of inhibition (ZOI).
Both samples (600 ppm LAE.HCl and control) were applied to 100% cotton fabric at the same volumes and allowed to dry at room temperature. Samples were then placed in an agar plates inoculated with S. aureus and incubated. To these plates was added saliva from the same person to determine if either sample would produce a zone inhibition. A negative control was also run at the same time. Only the product of this invention gave a positive ZOI.

**Q.** CCCCCCCCCCCC(=O)N[C@@H](CCCNC(=N)N)C(=O)OCC.Cl [LAE.HCl, N^α-lauroyl-L-arginine-ethyl ester hydrochloride] was tested. Which kill (S. aureus [1]) did it give?
**A.** comparable kill

**Q.** And the “zone of inhibition (ZOI)” value (S. aureus [2])?
**A.** positive ZOI
